Our source for the inhibition in vivo and IC50 values is patent US7410971B2, “1,2-di(cyclic)substituted benzene compounds” (Eisai R&D Management Co., Ltd., priority 2003, dated 2008).

By IC50 is commonly meant the concentration that gives 50% inhibition. Read a high IC50 as weaker potency in that assay.

Test [1] relates to colon-infiltrating neutrophils (myeloperoxidase enzyme activity). Description: Oxazolone-induced colon neutrophil infiltration model. The conditions noted are these: Mus musculus, po, 30 mg/kg orally 30 minutes prior to intrarectal oxazolone, colon myeloperoxidase activity 4 hours after, vs oxazolone control group, read-out: Inhibitory rate (%). Type of test: in vivo, Balb/c mice. The protocol:
Evaluation of Compounds in Oxazolone-Induced Colon Neutrophil Infiltration Model
<Sensitization with Oxazolone>
Five- to six-week-old male Balb/c mice (Charles River Japan) were shaven at the abdomen to an approximately 2 cm square area. A 100% ethanol solution containing 3% 4-ethoxymethylene-2-phenyl-2-oxazolin-5-one (hereinafter referred to as “oxazolone”; Sigma) was applied at 150 μl onto the abdomen of each mouse.
<Preparation of Emulsion Containing Oxazolone>
Distilled water (Otsuka Pharmaceutical) was added in an equivalent volume to 100% peanut oil (Kanto Kagaku) containing 1% oxazolone, and the components were vigorously mixed with a glass syringe (Top Co.), to prepare an emulsion containing 0.5% oxazolone.
<Induction with Oxazolone>
The mice were fasted on the 3rd day after oxazolone sensitization, and were injected with 100 μl of the emulsion containing 0.5% oxazolone prepared in the way described above intrarectally at a site approximately 3 cm from the anus under ether anesthesia on the 4th day.
<Colon-Infiltrating Neutrophil Assay>
Each compound was suspended or dissolved in an aqueous solution containing 0.5% methyl cellulose (Wako), and orally administered at 30 mg/kg 30 minutes prior to the intrarectal injection of oxazolone emulsion. Four hours after the intrarectal injection of oxazolone, mice were sacrificed by cervical dislocation, and colons were extirpated, dissected in the longitudinal direction, washed with physiological saline, and transferred to ice-cooled plastic centrifugation tubes. After adding 1 ml of 50 mM potassium phosphate buffer (hereinafter abbreviated as KPB) (pH 6.0) to the tube, and the tissue were homogenized with PHYSCOTRON (Microtec Nition Co., Ltd.), 2 ml of 50 mM KPB (pH 6.0) was added and the mixture was centrifuged at 3000 rpm, 4° C. for 10 minutes and the supernatant was removed. To the resultant precipitate was added 1 ml of 50 mM KPB (pH 6.0) containing 0.5% hexadecyltrimethyl-ammonium bromide (Sigma), and freeze-thawed 3 to 5 times using liquid nitrogen and hot water, centrifuged at 3000 rpm, 4° C. for 10 minutes to yield a supernatant. The myeloperoxidase enzyme activity in the supernatant was assayed in the following manner. Specifically, to 10 μl of the obtained supernatant was added 200 μl of 50 mM KPB (pH6.0) containing 0.017% o-dianisidine (Sigma) and 0.0005% hydrogen peroxide (Wako), incubated at 37° C., and the change in absorbance at 450 nm was continuously measured for 1 minute using an EL340 Automated Microplate Reader (BIO-TEK) in kinetic mode. The units were the rate of change in absorbance per minute (mO.D./min.). With regard to the effect of each compound, the inhibitory rate (%) with respect to the oxazolone control group, i.e. the oxazolone-injected/compound-free group, was shown in the table 3.

For test [2], the system named is human peripheral blood neutrophils. Description: Human peripheral blood neutrophil adhesion system (adhesion to immobilized HUVEC, PMA-stimulated). Type of test: cell-based. As to conditions: concentration inhibiting by 50% the PMA-stimulated increase in number of adhered BCECF-AM labeled neutrophils on HUVEC immobilized plate. How it is done: Evaluation of Compounds in Human Peripheral Blood Neutrophil Adhesion System
<Preparation of Human Peripheral Blood Neutrophils>
To a plastic centrifugation tube containing 100 units of heparin sodium (Shimizu Pharmaceutical) was added 25 ml of fresh blood sampled from a healthy human. After adding and mixing therewith 8 ml of physiological saline (Otsuka Pharmaceutical) containing 6% Dextran (Nacalai), the mixture was allowed to stand room temperature for 45 minutes for sedimentation of the erythrocytes. The resultant supernatant was transferred to another plastic centrifugation tube and combined with an equivalent volume of phosphate-buffered saline (hereinafter abbreviated as PBS; Sigma), and then centrifuged at 1600 rpm for 7 minutes at room temperature. The obtained hematocyte fraction was suspended in 4 ml of PBS, and the suspension was superposed on 4 ml of Ficoll-Paque™ PLUS (Amersham Biosciences). The resultant bilayer liquid was centrifuged at 2000 rpm for 30 minutes at room temperature, after which the supernatant was removed and the precipitate was suspended in 10 ml of PBS and centrifuged at 1200 rpm for 7 minutes, and the supernatant was removed. The resulting precipitate was suspended in 0.5 ml of PBS again, and then 10 ml of distilled water (Otsuka Pharmaceutical) was added, 0.5 ml of an aqueous solution containing 3 M NaCl was immediately added to restore isotonicity, the mixture was centrifuged at 1200 rpm for 7 minutes, and the obtained precipitate was suspended in PBS containing 1 mg/ml bovine serum albumin (hereinafter abbreviated as BSA; Sigma) again and stored in ice until being used for the experiment.
<Fluorescent Labeling of Human Peripheral Blood Neutrophils>
The obtained neutrophils were suspended in PBS containing 1 mg/ml BSA at 2×10^7 cells/ml. BCECF-AM (Dojin) was added to a final concentration of 5 μM, and the mixture was incubated at 37° C. for 45 minutes. It was then rinsed twice with PBS containing 1 mg/ml BSA by centrifugation, suspended again in PBS containing 1 mg/ml BSA at 5×10^7 cells/ml, and stored in ice until use.
<Preparation of HUVEC Immobilized Plate>
Human umbilical vein endothelial cells (hereinafter abbreviated as HUVEC) were suspended in MCDB131 medium (Chlorella Industries) containing 10% fetal calf serum and 30 μg/ml endothelial cell growth supplement (Becton Dickinson Bioscience). The suspension was added at 7.5×10^3 cells/well to a 96-well plate (Iwaki) immobilized with type I collagen, and cultured for 3 days in a CO2 incubator (Hirasawa). Upon confirming confluency of the cells, the supernatant was discarded, the plate was rinsed twice with PBS, and then PBS containing 0.1% glutaraldehyde (Kanto Kagaku) was added at 100 μl/well and the HUVECs were immobilized for 5 minutes. The supernatant was discarded and the plate was washed twice with PBS, and then PBS was added at 100 μl/well and the mixture was stored at 4° C. until use.
To 6.5 ml of RPMI-1640 medium (Sigma) containing 1 mg/ml of BSA were added 0.5 ml of a suspension of BCECF-AM labeled neutrophils at 5×10^7/ml stored in ice, which was mixed, and the mixture was added at 80 μl/well to a HUVEC immobilized plate. […] The supernatant was removed from the plate, which was then washed several times with RPMI-1640 at 100 μl/well, and then PBS containing 0.1% NP-40 (Calbiochem) was added thereto at 100 μl/well and the fluorescent intensity was measured with an ARVO™SX 1420 multi label counter (Wallac) to determine the number of adhered cells. […]

Consider `CCCCN1CCN(c2cc(C#N)ccc2[C@H]2CC[C@@H](C(C)(C)C)CC2)CC1.Cl` [Example 12, cis-4-(4-t-Butylcyclohexyl)-3-(4-butylpiperazine-1-yl)benzonitrile hydrochloride], for which, in test [1], the inhibition in vivo at 30 mg/kg came to 34%. In addition, in test [2], the midpoint of inhibition, the IC50, lay at 18.3 µM.

Turning to `CCCCN1CCN(c2cc(C#N)ccc2[C@H]2CC[C@H](C(C)(C)C)CC2)CC1.Cl` [Example 13, trans-4-(4-t-Butylcyclohexyl)-3-(4-butylpiperazin-1-yl)benzonitrile hydrochloride], the inhibition in vivo at 30 mg/kg in test [1] was found to be 13%. The compound also had an IC50 in test [2] of 53.9 µM.
